Experimental findings from patent publication US20220152051A1, “APPLICATION OF GLYCOCHOLIC ACID IN PREPARATION OF ANTITUMOR DRUGS” (DALIAN UNIVERSITY, priority 2019, published 2022) are described below.

For assay [1], the system named is RL95-2 (human endometrial cancer cells). Description: In-vitro anti-tumor experiment (CCK-8), RL95-2 cells. The assay is classed as cell-based. The method, then:
(§1) 3.1 Cells at a logarithmic growth phase are collected, the concentration of the cells is respectively regulated into 5×10^4 cells/ml by the 1640 culture medium and the DMEM culture medium, and 100 μl of cell suspension is added into a 96-well plate. […] 3.3 Add CCK-8 reagent after 12 h, 24 h, 36 h, 48 h and 60 h, and incubate for 3 h, and after incubation is completed, the absorption value of each well is measured at OD450 nm of the microplate reader. […]

Assay [2] concerns 4T1 mouse breast cancer cells. Description: Tumor inhibition rate by animal model (4T1 tumor-bearing BABL/c mice). The assay is classed as in vivo. The settings on record: 15 mg/kg intragastric twice/day for two weeks, 4T1 tumor in BABL/c mice. The method, then:
1. Materials: 30 female 10-week-old BABL/c mice purchased from the SPF Experimental Animal Center of the Dalian Medical University; and 4T1 tumor cells purchased from the Shanghai Cell Bank of the Chinese Academy of Sciences. 2.1 Modeling: 4T1 mouse breast cancer cells at a logarithmic growth phase are collected, and the concentration of the cells is adjusted to 2×10^6 cells/ml with PBS; and 0.1 ml of cell suspension is injected under the right armpits of the mice by a sterile syringe. 2.2 Administration: intragastric administration of 15 mg/kg of glycocholic acid is started on the second day after modeling (twice/day), 0.2 mL each time, the equal volume of distilled water is administrated to the control group, and administration is continuously carried out for two weeks. The mice are fasted on the night of the last administration, the mice are sacrificed on the fifteenth day by a cervical dislocation method, tumor tissues under the armpits of the mice are aseptically stripped and weighed, and the tumor inhibition rate is calculated according to a formula of […]

Assay [3] concerns MCF-7 (human breast cancer cells). Description: In-vitro anti-tumor experiment (CCK-8), MCF-7 cells. The assay is classed as cell-based. The method, then:
as §1

The test system of the next assay is FXR protein expression. Description: Western blot of specific target protein expression in 4T1 cells. The assay is classed as cell-based, mouse. The settings on record: 0.8 nmol/L, 12 h. The method, then:
2. After proteins of 4T1 cells intervened by glycocholic acid are extracted, by degeneration treatment, changes in the expression of the related proteins are measured according to the Western blot flow.
For orientation: Immunoblotting shows a protein as a band on a membrane.

For assay [4], the system named is NIH:OVCAR-3 (human ovarian cancer cells). The assay can be described thus: In-vitro anti-tumor experiment (CCK-8), NIH:OVCAR-3 cells. Format: cell-based. On the procedure: as §1
The subject of assay [5] is MDA-MB-468 (human breast cancer cells). Description: In-vitro anti-tumor experiment (CCK-8), MDA-MB-468 cells. Format: cell-based. On the procedure: as §1
The subject of a further assay is FXR gene expression. The assay can be described thus: Real-time PCR of specific target RNA expression in 4T1 cells. The settings on record: 0.8 nmol/L, 12 h, vs negative control. Format: cell-based, mouse. The method, then:
2. Method: RNA of the 4T1 cells intervened by glycocholic acid is extracted, and after reverse transcription, the Real-time RCP is carried out to measure the changes in the RNA expression of the specific target of glycocholic acid.
On the technique in general: Quantitative PCR measures a nucleic acid by following its amplification.

Assay [6] has as its system 4T1 (mouse breast cancer cells). Description: In-vitro anti-tumor experiment (CCK-8), 4T1 cells. The assay is classed as cell-based. The settings on record: for concentration at the highest point of the inhibition rate: 4T1 cells, highest inhibition rate at 12 h. On the procedure: 3.1 Cells at a logarithmic growth phase are collected, the concentration of the cells is respectively regulated into 5×10^4 cells/ml by the 1640 culture medium and the DMEM culture medium, and 100 μl of cell suspension is added into a 96-well plate. 3.2 After culture is carried out for 24 h at the temperature of 37° C. at 5% CO2, the concentration gradient of glycocholic acid respectively of 0.1 nmol/L, 0.2 nmol/L, 0.4 nmol/L, 0.8 nmol/L, 1.6 nmol/L, 3.2 nmol/L and 6.4 nmol/L is added into 4T1 mouse breast cancer cells, the concentration gradient of glycocholic acid respectively of 0.02 μmol/L, 0.04 μmol/L, 0.08 μmol/L, 0.16 μmol/L, 0.32 μmol/L, 0.64 μmol/L and 1.28 μmol/L is added into MCF-7 cells, the concentration gradient of glycocholic acid respectively of 0.02 μmol/L, 0.04 μmol/L, 0.08 μmol/L, 0.16 μmol/L, 0.33 μmol/L, 0.66 μmol/L and 1.32 μmol/L is added into MDA-MB-468 cells, the concentration gradient of glycocholic acid respectively of 0.02 μmol/L, 0.04 μmol/L, 0.08 μmol/L, 0.16 μmol/L, 0.32 μmol/L, 0.64 μmol/L and 1.28 μmol/L is added into NIH:OVCAR-3 cells, the concentration gradient of glycocholic acid respectively of 0.02 μmol/L, 0.04 μmol/L, 0.08 μmol/L, 0.16 μmol/L, 0.32 μmol/L, 0.64 μmol/L and 1.28 μmol/L is added into RL-95-2 cells, set up five duplicated wells and meanwhile, set up a blank group and a control group. 3.3 Add CCK-8 reagent after 12 h, 24 h, 36 h, 48 h and 60 h, and incubate for 3 h, and after incubation is completed, the absorption value of each well is measured at OD450 nm of the microplate reader. 3.4 An inhibition rate of each concentration of glycocholic acid for tumor cells is obtained by utilizing a formula of 3.1 Cells at a logarithmic growth phase are collected, the concentration of the cells is regulated into 5×10^4 cells/ml by the 1640 culture medium, and 100 μl of cell suspension is added into a 96-well plate. […] 3.3 Add CCK-8 reagent after 12 h, 24 h, 36 h, 48 h and 60 h, incubate for 3 h, and after incubation is completed, the absorption value of each well is measured at OD450 nm of the microplate reader. […]

Setting [7] is: highest inhibition rate at 36 h.

As usually defined, the IC50 is the concentration needed to halve the response being measured. Read a high IC50 as a need for much substance. For `C[C@H](CCC(=O)NCC(=O)O)[C@H]1CC[C@H]2[C@@H]3[C@H](O)C[C@@H]4C[C@H](O)CC[C@]4(C)[C@H]3C[C@H](O)[C@]12C` [glycocholic acid], the half-inhibitory concentration (IC50) lay within 320 to 640 nM in assay [1] (Homo sapiens, CCK-8, 36 h); 640 to 1000 nM in assay [3] (Homo sapiens, MCF7, CCK-8, 36 h); 160 to 320 nM in assay [4] (Homo sapiens, CCK-8, 48 h); 330 to 660 nM in assay [5] (Homo sapiens, CCK-8, 36 h); 0.01 to 0.1 nM in assay [6] (4T1 mouse breast cancer cells, CCK-8, 12 h). The “concentration at the highest point of the inhibition rate” value in assay [1] (setting [7]) came to 1.28 µmol/L; in assay [3] (setting [7]) it was 1.28 µmol/L; in assay [4] (highest inhibition rate at 48 h), 1.28 µmol/L; in assay [5] (setting [7]), 1.32 µmol/L; in assay [6], 0.8 nmol/L. Besides, in assay [2] (day 15), the “average mouse tumor mass” value was found to be 0.247 ± 0.08 g. In assay [2] (vs control group), this compound yielded a tumor inhibition rate of 42.83%. Besides, the “expression of the specific target protein (FXR) in tumor cells” value with FXR protein expression is on record as “increased”. In addition, in the assay on FXR gene expression, the “expression of related RNA (FXR gene) after intervention” value was 1.5 times.

Take `C[C@H](CCC(=O)NCC(=O)[O-])[C@H]1CC[C@H]2[C@@H]3[C@H](O)C[C@@H]4C[C@H](O)CC[C@]4(C)[C@H]3C[C@H](O)[C@]12C.[Na+]` [sodium glycocholate]: the “concentration at the highest point of the inhibition rate” value in assay [6] came out at 0.7 nmol/L.
